Experimental data from patent publication US6391847B1, “Method, polypeptides, nucleotide sequence of XOR-6, a vitamin D-like receptor from xenopus” (The Salk Institute for Biological Studies, priority 1995, dated 2002).

Columns and labels:
GAL-XOR-6 = assay: cotransfection assay, activation of GAL-XOR6 in CV-1 cells; format: cell-based, Xenopus laevis; conditions: for rank order potency of activation, esters differing in alkyl length (FIG. 3): 10^−6M of each compound; for activation of GAL-XOR-6 by agonist cocktail: cocktail: thyroid hormone 10^−7M, vitamin D3 10^−7M, all-trans RA 10^−6M, WY-14,643 5×10^−6M
Experimental: FIG. 3 illustrates the activation of XOR-6 by a variety of amino benzoate derivatives. Thus, 10^−6M of each compound was tested in the co-transfection assay for its ability to activate GAL-XOR6.
It can be concluded, therefore, that XOR-6 defines a novel RXR-dependent, ligand-mediated signalling pathway.
pCMX-GAL4-XOR6 was constructed by cloning nucleotides encoding amino acids 103 to 386 of XOR-6 into the SalI to XbaI sites of pCMX-GAL4 (see U.S. Ser. No. 08/177,740).
(§1) CV-1 cells were maintained in DMEM containing 10% resin-charcoal stripped fetal bovine serum. Liposome-mediated transient transfections were performed using DOTAP reagent (Boehringer Manheim) at a concentration of 5 μg/ml in Opti-MEM (Gibco). After 12-18 hours, the cells were washed and fresh DMEM-10% serum was added, including receptor agonists if required. After a further 48 hour incubation, the cells were lysed and luciferase reporter gene assays and β-galactosidase transfection control assays performed. Reporter gene expression is normalized to the β-galactosidase transfection control and expressed as relative light units per O.D. per minute of β-galactosidase activity.

XOR-6 = assay: cotransfection assay, activation of XOR-6 in transfected CV-1 cells; format: cell-based, Xenopus laevis; conditions: for rank order potency of XOR-6 activation, ortho/meta/para amino ethyl benzoates: cotransfection assay; for activation of XOR-6 (agonist activity in the cotransfection assay): transfected CV-1 cells
Experimental: A search for the XOR-6 ligand was instituted based on the presumption that the receptor and its ligand must be co-expressed at some time during development. Accordingly, an unbiased, bioassay directed screen for XOR-6 agonists was undertaken in HPLC fractionated organic extracts derived from a mixture of developmental stages. Total lipid extracts from a mixture of embryonic stages from fertilized eggs through swimming tadpoles were prepared and tested for the ability to activate both GAL-XOR6 or full-length XOR-6 in transfected CV-1 cells.
The total extract was partitioned between iso-octane and MeOH and again tested for bioactivity.
A suitable eukaryotic expression vector for use herein was constructed from the commercially available vector pCDNAI-AMP (Invitrogen). This vector allows expression from the strong cytomegalovirus early promoter, and bacteriophage T7 and SP6 promoter-driven production of sense and antisense RNA, respectively.
The cloning strategy employed was as follows: the three endogenous NcoI sites were removed by site directed mutagenesis, the polylinker region between XhoI and XbaI was removed by double digestion, endfilling and self ligation. […] The resulting plasmid, designated pCDG1, can be linearized with NotI to produce mRNA from the bacteriophage T7 promoter. The XOR-6 protein coding region was cloned between the NcoI and BamHI sites of pCDG1 and designated pCDG-XOR6.
as §1

xRXRα = biological target: T1, xRXRα (Xenopus laevis, UniProt P51128); assay: protease protection assay (ligand binding), parallel experiment; conditions: parallel experiment with xRXRα
T1 construct: made in house; host or cells: coupled in vitro transcription/translation (TNT, Promega)
T1 sequence (P51128 1-488): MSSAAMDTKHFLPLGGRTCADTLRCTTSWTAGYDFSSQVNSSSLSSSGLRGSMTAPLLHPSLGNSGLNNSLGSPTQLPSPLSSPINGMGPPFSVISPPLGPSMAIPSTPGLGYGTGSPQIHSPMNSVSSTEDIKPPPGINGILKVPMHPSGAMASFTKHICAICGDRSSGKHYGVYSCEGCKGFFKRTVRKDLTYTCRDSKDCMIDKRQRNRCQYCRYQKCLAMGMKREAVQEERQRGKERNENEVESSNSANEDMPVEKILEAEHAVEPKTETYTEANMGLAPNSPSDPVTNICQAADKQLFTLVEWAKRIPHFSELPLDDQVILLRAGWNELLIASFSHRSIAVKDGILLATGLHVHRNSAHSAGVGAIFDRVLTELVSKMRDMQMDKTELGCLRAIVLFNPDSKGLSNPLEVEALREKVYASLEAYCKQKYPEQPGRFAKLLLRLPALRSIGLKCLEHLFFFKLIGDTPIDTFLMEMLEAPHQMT
Source text: Biol. 14:287-298 (1994) was utilized.

XOR6:xRXRα heterodimer = assay: co-transfection experiments, responsiveness of heterodimer to two ligands; format: cell-based, Xenopus laevis; conditions: receptor dependent manner
Experimental: Receptors were transfected into cells and incubated with the indicated concentrations of agonists.
A potentially significant property of the XOR6:xRXRα heterodimer is its responsiveness to two ligands. […] This synergism occurs at several dilutions of the XOR-6 agonist and concentrations of 9-cis RA (see FIG. 4). […] Such complexes would be ideal candidates for responding to combinations of graded morphogenetic signals during development.
as §1

βRARE = assay: interference of XOR-6 overexpression with retinoic acid signalling through βRARE in CV-1 cells; format: cell-based; conditions: 1 μg expression plasmid co-transfected into CV-1 cells with 5 μg tk-β REx2-luc, all-trans retinoic acid
Experimental: 1 μg of XOR-6 expression plasmid was co-transfected into CV-1 cells with 5 μg of tk-β REx2-luc, and challenged with the indicated concentrations of all-trans retinoic acid.
Because XOR-6:RXR heterodimers bind well to a retinoic acid response element, βRARE, it was tested whether overexpression of XOR-6 could influence retinoic acid signalling through this element. […] This effect was strongest with full-length XOR-6 (24% of wild-type activity) but still detectable with GAL-XOR-6 (44% of wild-type activity).
as §1

CCCCOC(=O)c1ccc(N)cc1
rank order potency of activation, esters differing in alkyl length (FIG. 3) (GAL-XOR-6): 4-amino-butyl benzoate>3-amino-ethyl benzoate>4-amino-ethyl benzoate>>4-amino methyl benzoate

CCOC(=O)c1ccccc1N [2-AEB]
rank order potency of XOR-6 activation, ortho/meta/para amino ethyl benzoates (XOR-6): 3-AEB>4-AEB>>2-AEB | activation of XOR-6 (agonist activity in the cotransfection assay) (XOR-6): activated

Nc1ccccc1C(=O)O [2-amino benzoic acid, reference compound]
activation of XOR-6 (agonist activity in the cotransfection assay) (XOR-6): not possible, however, to demonstrate XOR-6 activation

CCOC(=O)c1cccc(N)c1 [3-AEB]
specificity of activation among an extensive collection of vertebrate nuclear receptors (XOR-6): specifically activates XOR-6 alone | activation of XOR-6 (agonist activity in the cotransfection assay) (XOR-6): potent agonist | activation of XOR-6 (agonist activity in the cotransfection assay) (XOR-6; listed as meta amino ethyl benzoate): activated | rank order potency of activation, esters differing in alkyl length (FIG. 3) (GAL-XOR-6): 4-amino-butyl benzoate>3-amino-ethyl benzoate>4-amino-ethyl benzoate>>4-amino methyl benzoate | protection from trypsin cleavage (xRXRα): not seen

Nc1cccc(C(=O)O)c1 [3-amino benzoic acid, reference compound]
activation of XOR-6 (agonist activity in the cotransfection assay) (XOR-6): not possible, however, to demonstrate XOR-6 activation

Nc1cccc(C(=O)O)c1O [3-amino salicylic acid, reference compound]
activation of XOR-6 (agonist activity in the cotransfection assay) (XOR-6): not possible, however, to demonstrate XOR-6 activation

CCOC(=O)c1ccc(N)cc1 [4-AEB, 4-amino-ethyl benzoate]
rank order potency of XOR-6 activation, ortho/meta/para amino ethyl benzoates (XOR-6): 3-AEB>4-AEB>>2-AEB | activation of XOR-6 (agonist activity in the cotransfection assay) (XOR-6): activated | rank order potency of activation, esters differing in alkyl length (FIG. 3) (GAL-XOR-6): 4-amino-butyl benzoate>3-amino-ethyl benzoate>4-amino-ethyl benzoate>>4-amino methyl benzoate

Nc1ccc(C(=O)O)cc1 [4-amino benzoic acid, 4-amino-benzoic acid, reference compound]
activation of XOR-6 (agonist activity in the cotransfection assay) (XOR-6): not possible, however, to demonstrate XOR-6 activation

COC(=O)c1ccc(N)cc1 [4-amino methyl benzoate]
rank order potency of activation, esters differing in alkyl length (FIG. 3) (GAL-XOR-6): 4-amino-butyl benzoate>3-amino-ethyl benzoate>4-amino-ethyl benzoate>>4-amino methyl benzoate

Nc1ccc(C(=O)O)c(O)c1 [4-amino salicylic acid, reference compound]
activation of XOR-6 (agonist activity in the cotransfection assay) (XOR-6): not possible, however, to demonstrate XOR-6 activation

CC1=C(/C=C/C(C)=C\C=C\C(C)=C\C(=O)O)C(C)(C)CCC1 [9-cis RA, 9-cis retinoic acid]
stimulation of reporter gene expression (XOR6:xRXRα heterodimer): stimulated reporter gene expression

Cc1cccc(Nc2cc(Cl)nc(SCC(=O)O)n2)c1C [WY-14,643, reference compound]
activation of GAL-XOR-6 by agonist cocktail (GAL-XOR-6): not activated

CC1=C(/C=C/C(C)=C/C=C/C(C)=C/C(=O)O)C(C)(C)CCC1 [all-trans RA, all-trans retinoic acid, reference compound]
activation of GAL-XOR-6 by agonist cocktail (GAL-XOR-6): not activated

N[C@@H](Cc1cc(I)c(Oc2ccc(O)c(I)c2)c(I)c1)C(=O)O [thyroid hormone, reference compound]
activation of GAL-XOR-6 by agonist cocktail (GAL-XOR-6): not activated

C=C1CC[C@H](O)C/C1=C/C=C1\CCC[C@]2(C)[C@@H]([C@H](C)CCCC(C)C)CC[C@@H]12 [vitamin D3, reference compound]
activation of GAL-XOR-6 by agonist cocktail (GAL-XOR-6): not activated

B1: full-length XOR-6: Xenopus Orphan Receptor 6, about 386 amino acids (SEQ ID NO:2), overexpressed from plasmid (protein)
chain: MWKVQETLVLEEEEEEEDASNSCGTGEDEDDGDPKICRACGDRATGYHFNAMTCEGCKGFFRRAVKRNLRLSCPFQNSCVINKSNRRHCQACRLKKCLDIGMRKELIMSDAAVEQRRALIKRKHKLTKLPPTPPGASLTPEQQHFLTQLVGAHTKTFDFNFTFSKNFRPIRRSSDPTQEPQATSSEAFLMLPHISDLVTYMIKGIISFAKMLPYFKSLDIEDQIALLKGSVAEVSVIRFNTVFNSDTNTWECGPFTYDTEDMFLAGFRQLFLEPLVRIHRMMRKLNVQSEEYAMMAALSIFASYRPGVCDWEKIQKLQEHIALTLKDFIDSQRPPSPQNRLLYPKIMECLTELRTVNDIHSKQLLEIWDIQPDATPLMREVFGSPE
retinoic acid-responsiveness of βRARE promoter on co-expression (βRARE): 24 % of wild-type activity

B2: GAL-XOR-6: GAL4 fusion with amino acids 103 to 386 of XOR-6 (pCMX-GAL4-XOR6) (protein)
chain: RKELIMSDAAVEQRRALIKRKHKLTKLPPTPPGASLTPEQQHFLTQLVGAHTKTFDFNFTFSKNFRPIRRSSDPTQEPQATSSEAFLMLPHISDLVTYMIKGIISFAKMLPYFKSLDIEDQIALLKGSVAEVSVIRFNTVFNSDTNTWECGPFTYDTEDMFLAGFRQLFLEPLVRIHRMMRKLNVQSEEYAMMAALSIFASYRPGVCDWEKIQKLQEHIALTLKDFIDSQRPPSPQNRLLYPKIMECLTELRTVNDIHSKQLLEIWDIQPDATPLMREVFGSPE
modifications: left off: large carriers
retinoic acid-responsiveness of βRARE promoter on co-expression (βRARE): 44 % of wild-type activity
